Experimental findings from ChEMBL document CHEMBL1150771, “Synthesis and potency of novel uracil nucleotides and derivatives as P2Y2 and P2Y6 receptor agonists” (Bioorg Med Chem, 2008) are described below.

The structures appear in SMILES notation.

The target of assay [1] is P2Y purinoceptor 2 (Homo sapiens, UniProt P41231). The assay is described as follows: Agonist activity at human P2Y2 receptor expressed in human 1321N1 cells assessed as [3H]inositol phosphate accumulation by scintillation proximity assay. It is filed as functional, cell-based.
Assay [2] deals with P2Y purinoceptor 4 (Homo sapiens, UniProt P51582). Kind of assay: Agonist activity at human P2Y4 receptor expressed in human 1321N1 cells assessed as [3H]inositol phosphate accumulation by scintillation proximity assay. It is filed as functional, cell-based. In general terms: In a scintillation proximity assay essentially only radioactivity close to the scintillant gives light.

Assay [3] concerns the target P2Y purinoceptor 6 (Homo sapiens, UniProt Q15077). Kind of assay: Agonist activity at human P2Y6 receptor expressed in human 1321N1 cells assessed as [3H]inositol phosphate accumulation by scintillation proximity assay. It is filed as functional, cell-based.
For assay [4], the species on record is Homo sapiens. Kind of assay: Selectivity for human P2Y2 receptor over human P2Y4 receptor.

Chain of P2Y purinoceptor 6 (Q15077 whole entry): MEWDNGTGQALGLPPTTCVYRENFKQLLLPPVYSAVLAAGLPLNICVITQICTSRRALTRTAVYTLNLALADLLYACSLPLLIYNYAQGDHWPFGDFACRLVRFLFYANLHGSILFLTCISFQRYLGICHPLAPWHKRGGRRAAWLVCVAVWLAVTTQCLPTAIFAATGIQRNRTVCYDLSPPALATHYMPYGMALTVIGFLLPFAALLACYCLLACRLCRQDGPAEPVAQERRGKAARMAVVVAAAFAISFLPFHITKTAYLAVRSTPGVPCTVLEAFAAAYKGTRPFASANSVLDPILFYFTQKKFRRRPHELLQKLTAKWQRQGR
Chain of P2Y purinoceptor 2 (P41231 whole entry): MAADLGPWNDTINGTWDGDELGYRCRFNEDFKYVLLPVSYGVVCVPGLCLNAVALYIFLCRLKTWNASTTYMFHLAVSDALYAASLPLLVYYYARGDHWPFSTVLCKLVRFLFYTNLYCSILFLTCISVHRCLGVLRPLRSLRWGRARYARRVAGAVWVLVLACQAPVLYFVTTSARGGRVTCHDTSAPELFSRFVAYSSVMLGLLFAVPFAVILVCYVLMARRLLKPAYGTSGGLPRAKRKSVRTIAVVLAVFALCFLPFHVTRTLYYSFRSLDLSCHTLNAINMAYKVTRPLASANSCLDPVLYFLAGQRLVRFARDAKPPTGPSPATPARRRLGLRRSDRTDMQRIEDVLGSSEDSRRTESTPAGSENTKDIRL
Chain of P2Y purinoceptor 4 (P51582 whole entry): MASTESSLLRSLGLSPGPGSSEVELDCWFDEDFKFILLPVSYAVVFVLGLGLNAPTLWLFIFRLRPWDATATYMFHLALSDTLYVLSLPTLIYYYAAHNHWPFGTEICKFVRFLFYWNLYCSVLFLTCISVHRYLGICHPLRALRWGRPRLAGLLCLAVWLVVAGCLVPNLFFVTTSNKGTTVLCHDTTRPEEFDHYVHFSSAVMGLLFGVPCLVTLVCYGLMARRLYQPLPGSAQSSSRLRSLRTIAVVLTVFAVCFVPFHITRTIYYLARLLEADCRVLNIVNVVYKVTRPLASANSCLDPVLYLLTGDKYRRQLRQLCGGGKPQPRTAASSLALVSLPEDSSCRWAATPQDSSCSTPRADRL

Consider `O=c1ccn([C@@H]2O[C@H](COP(=O)(O)OP(=O)(O)OP(=O)(O)OP(=O)(O)OC[C@@H]3O[C@@](O)(CO)[C@H](O)[C@H]3O)[C@@H](O)[C@H]2O)c(=O)[nH]1`, for which the EC50 is 3.33 µM in assay [1] and 6.3 µM in assay [2].

In the case of `O=c1[nH]c(=S)ccn1[C@@H]1O[C@H](COP(=O)(O)OP(=O)(O)OP(=O)(O)OP(=O)(O)O)[C@@H](O)[C@H]1O`, the EC50 in assay [1] was 0.07 µM; in assay [3], 6.46 µM; in assay [2], 0.28 µM.

In the case of `O=c1ccn([C@@H]2O[C@H](COP(=O)(O)OP(=O)(O)OP(=O)(O)OC[C@H]3O[C@@H](n4ccc(=O)[nH]c4=O)[C@H](O)[C@@H]3O)[C@@H](O)[C@H]2O)c(=O)[nH]1`, the values for the 50% effective concentration (EC50) in assay [1], in assay [3] and in assay [2] were 1.31 µM, 0.27 µM and 0.87 µM, respectively.

In the case of `O=c1ccn([C@@H]2O[C@H](COP(=O)(O)OP(=O)(O)OP(=O)(O)OP(=O)(O)OC3CCCCC3)[C@@H](O)[C@H]2O)c(=O)[nH]1`, the EC50 is 5.86 µM in assay [1], above 10 µM in assay [3] and above 10 µM in assay [2].

In the case of `O=c1ccn([C@@H]2O[C@H](COP(=O)(O)OP(=O)(O)OP(=O)(O)OC[C@H]3O[C@@H](n4cc(I)c(=O)[nH]c4=O)[C@H](O)[C@@H]3O)[C@H]3OC(Cc4ccccc4)O[C@H]32)c(=O)[nH]1` (stereo not given in full), the EC50 was 9.97 µM in assay [1] and 5.49 µM in assay [3].

With `NC(=O)N[C@@H]1[C@H](O)[C@@H](COP(=O)(O)OP(=O)(O)O)O[C@H]1n1ccc(=O)[nH]c1=O`, in assay [3], the EC50 stood at 4.7 µM.

Take `O=c1ccn([C@@H]2O[C@H](COP(=O)(O)OP(=O)(O)C(Cl)(Cl)P(=O)(O)O)[C@@H](O)[C@H]2O)c(=S)[nH]1`: the EC50 is 2.51 µM in assay [1] and above 10 µM in assay [3].

Regarding `O=c1ccn([C@@H]2O[C@H](COP(=O)(O)OP(=O)(O)OP(=O)(O)OP(=O)(O)O[C@H]3O[C@H](CO)[C@@H](O)[C@H](O)[C@H]3O)[C@@H](O)[C@H]2O)c(=O)[nH]1`, the EC50 in assay [1] was 0.3 µM; in assay [3] it was 7.83 µM; in assay [2] it was 2.06 µM.

In the case of `NC(=O)N[C@@H]1[C@H](O)[C@@H](COP(=O)(O)OP(=O)(O)OP(=O)(O)O)O[C@H]1n1ccc(=O)[nH]c1=O`, the EC50 was 1.74 µM in assay [1], above 10 µM in assay [3] and 4.64 µM in assay [2].

On to `O=c1ccn([C@@H]2O[C@H](COP(=O)(O)OP(=O)(O)OP(=O)(O)O)[C@@H](O)[C@H]2O)c(=O)[nH]1` [URIDINE TRIPHOSPHATE], for which the EC50 in assay [1] is 0.06 µM; in assay [3], above 10 µM; in assay [2], 0.09 µM.

For `O=c1[nH]c(=S)ccn1[C@@H]1O[C@H](COP(=O)(O)OP(=O)(O)OP(=O)(O)OP(=O)(O)OC[C@H]2O[C@@H](n3ccc(=S)[nH]c3=O)[C@H](O)[C@@H]2O)[C@@H](O)[C@H]1O`, the figures for the EC50 in assay [1], in assay [3] and in assay [2] were 0.03 µM, 2.03 µM and 0.08 µM, respectively.

In the case of `O=c1ccn([C@@H]2O[C@H](COP(=O)(O)OP(=O)(O)OP(=O)(O)OP(=O)(O)O[C@H]3O[C@H](CO)[C@H](O)[C@H](O)[C@H]3O)[C@@H](O)[C@H]2O)c(=O)[nH]1`, the EC50 in assay [1] was determined as 4.85 µM; in assay [3], 8.19 µM; in assay [2], 1.77 µM.

`N#CCCOP(=O)(O)OP(=O)(O)OP(=O)(O)OP(=O)(O)OC[C@H]1O[C@@H](n2ccc(=O)[nH]c2=O)[C@H](O)[C@@H]1O`: the EC50 was 1.7 µM in assay [1], above 10 µM in assay [3] and 1.96 µM in assay [2].

As for `Nc1cn([C@@H]2O[C@H](COP(=O)(O)OP(=O)(O)O)[C@@H](O)[C@H]2O)c(=O)[nH]c1=O`, the EC50 in assay [3] came out at 0.61 µM.

In the case of `O=c1ccn([C@@H]2O[C@H](COP(=O)(O)OP(=O)(O)C(F)(F)P(=O)(O)O)[C@@H](O)[C@H]2O)c(=S)[nH]1`, the EC50 in assay [1] is 1.63 µM; in assay [3], 5.15 µM; in assay [2], 8.11 µM.

Turning to `Nc1nc2c(ncn2[C@H]2C[C@H](O)[C@@H](COP(=O)(O)OP(=O)(O)OP(=O)(O)OP(=O)(O)OC[C@H]3O[C@@H](n4ccc(=O)[nH]c4=O)[C@H](O)[C@@H]3O)O2)c(=O)[nH]1`, the EC50 in assay [1] stood at 0.14 µM; in assay [3], 1.03 µM; in assay [2], 0.54 µM.

As to `O=c1ccn([C@@H]2O[C@H](COP(=O)(O)OP(=O)(O)OP(=O)(O)OP(=O)(O)Oc3ccccc3)[C@@H](O)[C@H]2O)c(=O)[nH]1`, in assay [1], the EC50 was determined as 1.89 µM.

Regarding `O=c1ccn([C@@H]2O[C@H](COP(=O)(O)OP(=O)(O)C(Cl)(Cl)P(=O)(O)OP(=O)(O)OC[C@H]3O[C@@H](n4ccc(=O)[nH]c4=O)[C@H](O)[C@@H]3O)[C@@H](O)[C@H]2O)c(=O)[nH]1`, the EC50 in assay [1] is 7.77 µM.

For `O=c1ccn([C@@H]2O[C@H](COP(=O)(O)CP(=O)(O)O)[C@@H](O)[C@H]2O)c(=O)[nH]1`, in assay [3], the EC50 was 0.66 µM.

For the compound `O=c1ccn([C@@H]2O[C@H](COP(=O)(O)OP(=O)(O)OP(=O)(O)OP(=O)(O)OCC(O)CO)[C@@H](O)[C@H]2O)c(=O)[nH]1` (stereo not given in full), the EC50 in assay [1] was 1.87 µM; in assay [3], 8.19 µM; in assay [2], 1.12 µM.

Take `O=c1ccn([C@@H]2O[C@H](COP(=O)(O)OP(=O)(O)OP(=O)(O)OP(=O)(O)OP(=O)(O)O)[C@@H](O)[C@H]2O)c(=S)[nH]1`: the EC50 in assay [1] came out at 0.57 µM; in assay [3], 7.33 µM; in assay [2], 5.27 µM.

For the compound `O=c1ccn([C@@H]2O[C@H](COP(=O)(O)OP(=O)(O)OP(=O)(O)OP(=O)(O)O)[C@@H](O)[C@H]2O)c(=O)[nH]1`, the EC50 in assay [1] was determined as 2.61 µM; in assay [3], 7.56 µM; in assay [2], 4.64 µM.

As for `O=c1ccn([C@@H]2O[C@H](COP(=O)(O)OP(=O)(O)OP(=O)(O)OP(=O)(O)O)[C@@H](O)[C@H]2O)c(=S)[nH]1`, the EC50 in assay [1] worked out at 0.6 µM; in assay [3] it was 6.83 µM; in assay [2], 5.52 µM.

As for `O=c1ccn([C@@H]2O[C@H](COP(=O)(O)OP(=O)(O)OP(=O)(O)OP(=O)(O)OC[C@H]3OC(O)[C@@H](O)[C@@H](O)[C@@H]3O)[C@@H](O)[C@H]2O)c(=O)[nH]1` (stereo not given in full), the 50% effective concentration (EC50) in assay [1], in assay [3] and in assay [2] was above 10 µM throughout.

For the compound `Nc1ccn([C@H]2C[C@H](O)[C@@H](COP(=O)(O)OP(=O)(O)OP(=O)(O)OP(=O)(O)OC[C@H]3O[C@@H](n4ccc(=O)[nH]c4=S)[C@H](O)[C@@H]3O)O2)c(=O)n1`, the EC50 in assay [1] stood at 0.08 µM; in assay [3] it was 1.05 µM; in assay [2], 0.71 µM. In addition, in assay [4], the Ratio EC50 is 9.

As for `O=c1ccn([C@@H]2O[C@H](COP(=O)(O)OP(=O)(O)C(F)(F)P(=O)(O)OP(=O)(O)OC[C@H]3O[C@@H](n4ccc(=O)[nH]c4=O)[C@H](O)[C@@H]3O)[C@@H](O)[C@H]2O)c(=O)[nH]1`, the EC50 in assay [1] was 2.27 µM; in assay [3], above 10 µM; in assay [2] it was above 10 µM.

For `CSc1ccn([C@@H]2O[C@H](COP(=O)(O)OP(=O)(O)OP(=O)(O)O)[C@@H](O)[C@H]2O)c(=S)n1`, the EC50 in assay [1] is 0.91 µM; in assay [3], above 10 µM; in assay [2], 5.35 µM.

`O=c1ccn([C@@H]2O[C@H](COP(=O)(O)OP(=O)(O)OP(=O)(O)OP(=O)(O)OC[C@@H]3OC(O)[C@@H](O)[C@H]3O)[C@@H](O)[C@H]2O)c(=O)[nH]1` (stereo not given in full): the results for the EC50 in assay [1], in assay [3] and in assay [2] were 1.88 µM, above 10 µM and 4.78 µM, respectively.

As for `C[C@@]1(O)[C@H](O)[C@@H](COP(=O)(O)OP(=O)(O)OP(=O)(O)O)O[C@H]1n1ccc(=O)[nH]c1=O`, the EC50 in assay [1] was 1.45 µM; in assay [2], 1.26 µM.

Take `Nc1ccn([C@H]2C[C@H](O)[C@@H](COP(=O)(O)OP(=O)(O)OP(=O)(O)OP(=O)(O)OC[C@H]3O[C@@H](n4ccc(=O)[nH]c4=O)[C@H](O)[C@@H]3O)O2)c(=O)n1` [DENUFOSOL]: the EC50 came to 0.14 µM in assay [1], 0.95 µM in assay [3] and 0.14 µM in assay [2].

On to `COP(=O)(O)OP(=O)(O)OP(=O)(O)OP(=O)(O)OC[C@H]1O[C@@H](n2ccc(=O)[nH]c2=O)[C@H](O)[C@@H]1O`, for which the EC50 in assay [1] is 3.95 µM; in assay [3], above 10 µM; in assay [2] it was 2.7 µM.

`O=c1ccn([C@@H]2O[C@H](COP(=O)(O)OP(=O)(O)OP(=O)(O)OP(=O)(O)OC[C@H]3OC(O)C[C@@H](O)[C@@H]3O)[C@@H](O)[C@H]2O)c(=O)[nH]1` (stereo not given in full): the EC50 in assay [1] is 3.54 µM; in assay [3] it was above 10 µM; in assay [2], 4.32 µM.

On to `O=c1ccn([C@@H]2O[C@H](COP(=O)(O)OP(=O)(O)OP(=O)(O)O)[C@@H](O)[C@@H]2O)c(=S)[nH]1`, for which the values for the EC50 in assay [1] and in assay [2] were 0.14 µM and 7.93 µM, respectively.

In general, EC50 refers to the concentration at which the effect is half-maximal.
